Assay results taken from patent US10954255B2, “Phospholipid analogues” (Karl-Franzens-Universitaet Graz, priority 2018, dated 2021).
“Also recorded” adds a separate entry of the source.

What was measured:
[1] = system: human pulmonary artery endothelial monolayers; test: Endothelial monolayer permeability, transendothelial electrical resistance (TER); format: cell-based; conditions: for endothelial barrier-protective effect compared with free iloprost (TER): 0.5 μM, post-treatment 15 min or 5 hrs after LPS 200 ng/ml, monitored over 20 hours, FIG. 4
Description: The cellular barrier properties were analyzed by measurements of transendothelial electrical resistance (TER) across confluent human pulmonary artery endothelial monolayers using an electrical cell-substrate impedance sensing system (Applied Biophysics, USA) as previously described (Birukova A A et al., Am. J. Physiol. Lung Cell. Mol. Physiol. 2006, 290(3):L540-548; Birukova A A et al. FASEB J. 2004, 18(15):1879-1890).

LPS-induced lung injury = LPS-induced lung injury and vascular barrier dysfunction in mice (BAL, TNFα, optical imaging); format: in vivo; conditions: 10 μg/kg i.v. concurrently and 5 hrs after LPS i.t., day 1 and day 3, FIG. 5
Description: Eight-week old C57B1 mice were purchased from Jackson Laboratories (Bar Harbor, USA). Animals were handled according to the National Institutes of Health Guide for the Care and Use of Laboratory Animals. Bacterial lipopolysaccharide (LPS, 0.63 mg/kg body wt; Escherichia coli O55:B5) or sterile water was injected intratracheally in a small volume (20-30 μl) using a 20-gauge catheter (Exelint International, USA). Iloprost (10 μg/kg), ILO-PC (10 μg/kg) or sterile saline solution was administrated concurrently and 5 hrs after LPS instillation by intravenous injection in the external jugular vein. Animals were sacrificed at day-1 or day-3 by exsanguination under anesthesia. BAL was performed using 1 ml of sterile Hanks balanced salt buffer and measurements of cell count and protein concentration were conducted as previously described (Fu P et al., Eur. Respir. J. 2009, 33:612-624). […]
In vivo optical imaging: Mice were injected with 100 μl of 2 nmol Angiosense 680 EX (a vascular fluorescent blood pool imaging agent purchased from PerkinElmer, USA), intravenously via tail vein. Fluorescence optical imaging was performed in the Integrated Small Animal Imaging Research Resource (iSAIRR) at the University of Chicago using Xenogen IVIS 200 Spectrum (Caliper Life Sciences, USA). […]

[2] = system: Human ECs (HUVECs and HUVECtert); test: Cell survival test, serum deprivation; format: cell-based; conditions: M199 without serum, 24 to 49 hrs, FIG. 6-8
Description: Human ECs (HUVECs and HUVECtert) were cultured Nunclon™ Delta surface flasks (Bartelt; Graz, Austria) in the medium M199 (Gibco) supplemented with 20% fetal calf serum (FCS, Gibco; Carlsbad, Calif., USA), penicillin-streptomycin-amphotericin B (PSF, Lonza; Basel, Switzerland), glutamine (Lonza) and ECGS-heparin (PromoCell; Heidelberg, Germany) in the 95% humidified atmosphere with 5% CO2 at 37° C. For stimulation of cells, they were seeded in the same medium in 96-well Nunclon™ Delta plates (Bartelt). On the day 2, the full medium was exchanged to M199 medium without serum but containing lipids (100 μl per well). In experiments on cell survival against hydrogen peroxide, camptothecin or doxorubicin, the full medium was exchanged to M199 containing 7% FCS and OxPAPC at 40 μg/ml or 50 μg/ml added as a two-fold concentrated solution (50 μl per well). After 20 to 30 min preincubation, toxic agents were added also as two-fold concentrated solutions in M199/7% FCS (50 μl per well). After 16 to 72 hrs of cell incubation at 37° C. and 5% CO2 in 95% humidity, either a nuclei counting of the remained cells or an XTT assay were performed. For the nuclei counting, the medium containing dead cells was aspirated and a Hoechst 33342 solution at the concentration of 1 μg/ml in PBS containing Ca^2+ and Mg^2+ (50 μl per well) was added. After at least 20 min incubation of cells at 37° C. in the cell culture incubator, the stained nuclei were counted using the EnSight plate reader (Perkin-Elmer; Waltham, Mass., USA). An XTT assay with the incubation time of 2 hrs was performed as described (Oskolkova, Godschachner and Bochkov, Inflammation 2017; 40(2): 530-536).
OxPLs protect endothelial cells (ECs) against serum deprivation. ECs were seeded in full M199 medium containing 20% serum. On the day 2, the medium was exchanged to M199 without serum and containing phospholipids at increasing concentrations. After 48 hrs, nuclei of remaining cells were stained by Hoechst and counted. Cells treated with 20% FCS serve as positive and with PBS as negative controls, respectively.
ECs were treated as described in Example 13. After 24 hrs, nuclei of remaining cells were stained by Hoechst 33342 and counted. Cells treated with OxPAPC and 20% FCS serve as positive and with PBS as negative controls, respectively.
ECs were treated with increasing concentrations of OxAA as described in Example 13. After 49 hrs, nuclei of remaining cells were stained by Hoechst 33342 and counted. Cells treated with 20% FCS or with 20 μM OxPAPC serve as positive and with PBS as negative controls, respectively.

LPS-induced chemokine KC = test: Induction of chemokine KC in plasma of mice injected with LPS; format: in vivo; conditions: phospholipid 200 μg/mouse i.p. with LPS 20 μg/mouse, blood after 2 and 4 hrs, FIG. 2
Description: Experiments were performed according to Austrian animal rights law using female C57BL/6J mice (Jackson Laboratories, Germany) of 20 g body weight. Mice were injected i.p. with 200 μl of either with saline, phospholipid (200 μg/mouse), LPS (Escherichia coli O55:B5, 20 μg/mouse) or a combination of LPS and the phospholipid. After 2 and 4 hrs blood was taken retroorbitaly and placed into Eppendorf tubes containing EDTA. After centrifugation of cells, plasma was collected and analyzed by ELISA for murine KC.

`CC#CCC(C)[C@H](O)/C=C/[C@@H]1C2C/C(=C/CCCC(=O)NC(COCCCCCCCCCCCCCCCC)COP(=O)(O)OCC[N+](C)(C)C)CC2C[C@H]1O` (stereo partly shown) [KFU-iloprost, 1-O-Hexadecyl-2-deoxy-2-(iloprost)amino-sn-glycero-3-phosphocholine] was tested. Which “endothelial barrier-protective effect compared with free iloprost (TER)” value [1] did it give?
Its value is “stronger endothelial barrier-protective effect than free Iloprost”.

What about the “endothelial barrier-protective effect compared with free iloprost (TER)” value ([1]; listed as KFU-conjugated iloprost) of the same compound?
Its value is “stronger and more prolonged barrier-protective activity as compared to free iloprost”.

And the “protection from LPS-induced lung injury, barrier dysfunction and edema compared with free iloprost” value (LPS-induced lung injury)?
Its value is “better protection from edema in vivo as compared to free molecule”.

And the “protection from LPS-induced lung injury, barrier dysfunction and edema compared with free iloprost” value (LPS-induced lung injury; listed as KFU-ILO)?
Its value is “better protective response on LPS-induced lung injury and barrier dysfunction compared to a free molecule”.

`CCCCC[C@H](O)/C=C/[C@H]1C=CC(=O)[C@H]1C/C=C\CCCC(=O)O` [iPGA2, 8-iso-prostaglandin A2, reference compound] was tested. Which “protection of ECs against serum deprivation (nuclei counting, Hoechst 33342)” value (“protection of ECs” below) [2] did it give?
Its value is “not active; also recorded: not protective”.

With `CCCCCCCCCCCCCCCCOCC(COP(=O)(O)OCC[N+](C)(C)C)NC(=O)CCC/C=C\C[C@H]1C(=O)C[C@@H](O)[C@@H]1/C=C/[C@@H](O)CCCCC` (stereo partly shown) [KFU-PGE2, 1-O-Hexadecyl-2-deoxy-2-(prostaglandin E2)amino-sn-glycero-3-phosphocholine] as the compound, how does the “induction of inflammatory chemokine KC in plasma (LPS-induced inflammation in vivo)” value (LPS-induced chemokine KC) read?
Its value is “inhibits induction of inflammatory chemokine KC”.

What about the “endothelial barrier protection/enhancement (TER)” value ([1]; cultured endothelial cells, two concentrations, FIG. 3) of the same compound?
The value was “protects endothelial cell barrier”.

And the “protection of ECs” value [2]?
Its value is “protective effects”.

How did the “protection of ECs” value [2] turn out when `CCCCCCCCCCCCCCCCOCC(COP(=O)(O)OCC[N+](C)(C)C)NC(=O)CCC/C=C\C[C@@H]1[C@@H](/C=C/[C@@H](O)CCCCC)[C@H](O)C[C@@H]1O` (stereo partly drawn) [KFU-PGF2α, 1-O-Hexadecyl-2-deoxy-2-(prostaglandin F2α)amino-sn-glycero-3-phosphocholine] was run?
The value was “protective effects”.

`CCCCCCCCCCCCCCCCOCC(COP(=O)(O)OCC[N+](C)(C)C)NC(=O)CCC/C=C\C[C@@H]1C(=O)C=C[C@@H]1/C=C/[C@@H](O)CCCCC` (stereo partly shown) [KFU-iPGA2, 1-O-Hexadecyl-2-deoxy-2-(8-iso-prostaglandin A2)amino-sn-glycero-3-phosphocholine] was tested. Which “protection of ECs” value ([2]; listed as iPGA2-NH-PC) did it give?
The value was “protective effects; also recorded: protect ECs against serum deprivation”.
